Results taken from patent publication US4079139A, “Flavone derivatives” (priority 1974, dated 1978).
Like-named read-outs stand apart in the source and are kept apart here.

Experiments:
[1] = tested on: respiratory and cardiocirculatory activity; settings: rabbit; for convulsive phenomena: in vivo, iv
Mouse [2] = settings: cited from earlier work
[3] = Convulsivant effect on mouse; settings: mouse, in vivo, po
mouse [4] = experiment: Convulsivant effect on mouse; settings: for stimulant action on the CNS indicated by the ratio LD50/CD50: mouse, in vivo
[5] = tested on: toxicity of sodium Pentobarbital; experiment: "Life-saving" effect: influence on the toxicity of sodium Pentobarbital; settings: for PR (ratio between the LD50 of Pentobarbital with and without pre-treatment with the stimulant): mouse, in vivo
[6] = Stimulating activity on the CNS (analeptic activity, ED50); type: in vivo
Acute toxicity in rat = experiment: Acute toxicity in rat; set-up: species or system rats Sprague-Dauley; settings: in vivo, read-out: LD50 and F.L.
Protocol: The test has been performed on Swiss mice of the weight of 20-22 g and on rats Sprague-Dauley of the weight of 120-130 g, subdivided in groups comprising 5 male and 5 female animals. The new drugs have been administered to animals hungry since 15-18 hours, both by oral and i.p.route. The LD50 values have been determined according to Litchfield and Wilcoxon (J.Pharmacol.96,99,1949). The results are reported in the following Table 1, in comparison with LD50 value for Dimefline.

[7] = tested on: respiratory depression induced by morphine; settings: rabbit
mouse [8] = settings: in vivo
Acute toxicity in mouse = settings: mouse, in vivo
Mouse [9] = experiment: Acute toxicity in mouse; settings: in words
rat = experiment: Chronic toxicity in rat
[10] = rat, 5 and 10 mg/kg, 5 times/week over 12 weeks

## COc1ccc2c(=O)c(C)c(-c3ccccc3)oc2c1CN(C)C [Dimefline]
[1]
  convulsive phenomena: several cases showing convulsive phenomena
Mouse [2]; i.p., Setnikar, J.Pharmacol.128, 176, 1960
  LD50 and F.L.: 4.8 (4.6-5.0) mg/KG
Mouse [2]; in vivo, po
  LD50 and F.L.: 11.9 (10.3-13.8) mg/KG
Mouse [2]; in vivo
  LD50 and L.F.: 11,9 (10,3-13,8) mg/Kg
[3]
  TD50: 8.9 mg/kg
Mouse [4]; in comparison with PV1, in words
  start of the convulsivant effect: starts at by far lower doses
Mouse [4]
  stimulant action on the CNS indicated by the ratio LD50/CD50: equivalent for the two drugs
[5]
  PR (ratio between the LD50 of Pentobarbital with and without pre-treatment with the stimulant): 1,27

## COc1ccc2c(=O)c(-c3ccccc3)c(-c3ccc(C)cc3)oc2c1CN(C)C [PV1]
[6]
  ED50: 5 mg/kg
Acute toxicity in rat; ip
  LD50: 22.5 mg/kg
Acute toxicity in rat; po, os
  LD50: 76.4 mg/kg
[1]; i.v. 1.25 - 2.5-5 mg/kg, without morphine
  respiratory amplitude and frequency: constantly reduced the gradual diminution of the respiratory amplitude and frequency
[1]
  convulsive phenomena: no convulsive phenomenon was detected
[7]; i.v. 1.25 mg/kg, after morphine 10 mg/kg
  antagonism of the intermittent breath of Sheyne-Stoches: uneffective
[7]; i.v. 2.5 mg/kg, after morphine 10 mg/kg, repeated administration needed
  reinstatement of normal respiratory amplitude and frequency: effective to reinstate normal values of respiratory amplitude and frequency, but needed repeated administration
[7]; i.v. 5 mg/kg, after morphine 10 mg/kg, only one administration
  reinstatement of normal respiratory amplitude and frequency: quite effective
[7]; in vivo, iv
  cardiocirculatory conditions: not remarkably affected
Mouse [8]
  R(LD50 /CD50): 1,38
Acute toxicity in mouse
  LD50: 80 mg/kg
Acute toxicity in mouse; ip
  LD50: 28.2 mg/kg
Acute toxicity in mouse; po
  LD50: 80 mg/kg
Mouse [9]
  acute toxicity compared with Dimefline: by far less toxic than Dimefline
rat; 5 mg/Kg, 12 weeks
  HB: 14,88 ± 0,36%
  Hemazies: 7,38 ± 0,21 10^6 /mm^3
  Leucocytes: 17,04 ± 1,36 10^3 /mm^3
  Leucocytic formula: bas: 0
  Leucocytic formula: eosin: 0,9
  Leucocytic formula: linf.: 77,6
  Leucocytic formula: monoc.: 7,9
  Leucocytic formula: neutr.: 13,6
rat; 5 mg/kg
  analysis of urine: Hemoglobin: 1(+)
  analysis of urine: Proteins: 6(+)
  analysis of urine: Residue: normal
  relative average weight: Brain: 579,6 ± 24,5 mg/100 g of body weight
  relative average weight: Heart: 289,9 ± 11,2 mg/100 g of body weight
  relative average weight: Liver: 3012 mg/100 g of body weight
  relative average weight: Loins: 658,5 ± 26,4 mg/100 g of body weight
  relative average weight: Spleen: 304,2 ± 16,6 mg/100 g of body weight
rat; 5 mg/kg, 12 weeks
  Azotemia: 15,7 ± 0,5 mg/100 ml
  Glycemia: 87,8 ± 3,9 mg/100 ml
  SGOT: 12,9 ± 0,8 mU/ml
  SGPT: 12,1 ± 0,6 mU/ml
rat; 10 mg/Kg, 12 weeks
  HB: 15,02 ± 0,42%
  Hemazies: 7,40 ± 0,20 10^6 /mm^3
  Leucocytes: 16,70 ± 1,70 10^3 /mm^3
  Leucocytic formula: bas: 0
  Leucocytic formula: eosin: 0,7
  Leucocytic formula: linf.: 77,8
  Leucocytic formula: monoc.: 9,4
  Leucocytic formula: neutr.: 12,1
rat; 10 mg/kg
  analysis of urine: Hemoglobin: 2(+)
  analysis of urine: Residue: normal
  relative average weight: Brain: 583,7 ± 19,8 mg/100 g of body weight
  relative average weight: Heart: 288,8 ± 11,3 mg/100 g of body weight
  relative average weight: Liver: 3036,5 mg/100 g of body weight
  relative average weight: Loins: 672,8 ± 29,6 mg/100 g of body weight
  relative average weight: Spleen: 303,7 ± 13,5 mg/100 g of body weight
rat; 10 mg/kg, 12 weeks
  Azotemia: 32,5 ± 1,6 mg/100 ml
  Glycemia: 80,3 ± 4,1 mg/100 ml
  SGOT: 12,3 ± 0,5 mU/ml
  SGPT: 10,4 ± 0,7 mU/ml
rat; [10]
  deaths: No death has been registered
  increase in the weight of the treated animals: identical to that of the controls
  intolerance of the drug: No intolerance of the drug has been noted
rat; rat, 5 and 10 mg/kg, 12 weeks
  autopsy: no lesion of the different organs
rat; rat, 5 and 10 mg/kg, 12 weeks, vs controls, in words
  hematologic and hematochemical tests: do not show significant difference between controls and treated animals
[3]
  TD50: 58 mg/kg
Mouse [4]
  stimulant action on the CNS indicated by the ratio LD50/CD50: equivalent for the two drugs
[5]; equi-toxic doses, vs Dimefline, in words
  reduction of the toxicity of Pentobarbital: reduces the toxicity of Pentobarbital much more than Dimefline
[5]
  PR (ratio between the LD50 of Pentobarbital with and without pre-treatment with the stimulant): 1,39
